According to US20060173080A1, “Methods of modulating TNF using bupropion” (The Regents of the University of California, priority 2002, published 2006):
Entries after “also recorded” stand apart in the source; their conditions may differ. Structures can show the parent of a compound that is named as a salt.

Columns and labels:
TNF = assay: Serum TNF by ELISA in LPS-challenged mice; type: in vivo, BALB/c mice; conditions: bupropion 100 mg/kg i.p. 1 h before 600 μg LPS i.p., serum 90 min after LPS
Experimental: (§1) To study the immunomodulatory effects of bupropion we used a mouse model in which TNF production is induced by stimulation with lipopolysaccharide (LPS) (Bozza et al, The PACAP-type I receptor agonist maxadilan from sand fly saliva protects mice against lethal endotoxemia by a mechanism partially dependent on IL-10, Eur. J. Immunol. 28, 3120-3127, 1998). BALB/c mice were injected intraperitoneally (i.p.) with bupropion or placebo 1 h prior to i.p. injection of LPS (600 ug/mouse).
(§2) Male, 6 weeks old BALB/c mice were used in LPS-induced shock experiments. All mice were raised and maintained at the animal facilities at the Goncalo Moniz Research Center-FIOCRUZ, and provided with rodent diet and water ad libitum. Animal numbers in experimental groups were the minimum necessary to permit statistical analysis. All animals were sacrificed under anaesthesia.
Groups of mice were injected intraperitoneally (i.p.) with a dose of 600 μg of LPS (from Escherichia coli serotype 0111 :B4, Sigma, St. Louis, Mo., USA) in saline (previously determined as LD 100) 1 h after injection of placebo or bupropion. In some experiments, groups of mice received i.p. injection of propranolol (1 mg/Kg), SCH23390 (25 μg/kg) and sulpiride (25 mg/Kg) 1 h prior to injection of bupropion. […]. To determine serum TNF, IL-1 beta and IL-10 levels, mice were sacrificed 90 min after injection of LPS and bled by axilar vein puncture. Levels of IFN-gamma and nitric oxide were assayed using sera of mice sacrificed 4 h after LPS injection. Platelet and leukocyte cell counts were performed using blood collected with EDTA after 4 h of LPS challenge, using an automated cell counter (ADVIA 60, Bayer).
(§3) TNF, IL-1beta, IFN-gamma and IL-10 concentrations in serum samples or in supernatants from macrophage cultures were determined by enzyme-linked immunosorbent assay (ELISA) using antibody pairs and recombinant cytokines from R&D systems (Minneapolis, Minn., USA), according to the manufacturer's instructions. After incubation with streptoavidin-peroxidase conjugate (Sigma), the reaction was developed using 3,3′, 5,5′-tetramethylbenzidine (TMB) peroxidase substrate and read at 450 nm. The serum concentration of nitrite (NO2−) was determined by the Griess reaction, as an indicator of nitric oxide production (Green et al., Analysis of nitrate nitrite and [^15N] nitrite in biological fluids. Anal. Biochem 126, 131-138, 1982). […] The absorbance of the reaction product at 540 nm was measured using an ELISA reader. The NO2^− concentration was determined by using sodium nitrite as standard. Data were analyzed using Student's t test, one-way ANOVA or Newman-Keuls multiple comparison test, using Graph Pad Prism 3.0 software. […]

IL-1beta = assay: Serum IL-1beta by ELISA in LPS-challenged mice; type: in vivo, BALB/c mice; conditions: bupropion 100 mg/kg i.p. 1 h before 600 μg LPS i.p., serum 90 min after LPS
Experimental: as §1
as §2, with “anaesthesia. […]” for “anaesthesia.”
as §3

TNF-alpha = assay: TNF level in patients with congestive heart failure before and on bupropion; type: in vivo, human; conditions: for TNF: NYSHA Class I CHF
Experimental: A person with NYSHA Class I CHF who started on bupropion for major depression. Their TNF before bupropion was 347 pg/ml and 5 pg/ml after two months on bupropion 150 mg twice a day (BID). […] In addition, a person with a history of two myocardial infarctions and NYSHA Class II CHF, who started on bupropion for major depression and desire to stop a 1.5 container/day chewing tobacco habit. Their TNF before starting bupropion was 433 pg/ml, and […] and then four weeks on bupropion 150 mg three times a day (TID). They subsequently stopped using tobacco and their depression is in remission. Finally, a person with NYSHA Class I CHF-TNF was 303 pg/ml before bupropion was started for depression and 7 pg/ml on 150 mg TID.

CD patients = assay: Case reports of Crohn's disease patients on bupropion (CDAI, symptoms, flares); type: in vivo, human
Description: Also, multiple toxicity issues are associated with taking medicines such as azathioprine, methotrexate, and steroids over time (Sartor R B. New therapeutic approaches to Crohn;s disease. N Engl J Med 2000;342:1664-1666). In CD, TNF is increased, and TNF is thought to play a central role in CD pathogenesis (Papadakis K A, Targan S R. Role of cytokines in the pathogenesis of inflammatory bowel disease. Annu Rev Med 2000;51:289-298). Monoaminergic and dopaminergic treatments can lower levels of TNF-alpha via increased intracellular adenosine 3′,5′-cyclic monophosphate (cAMP).
person one presented in May of 1999 for treatment of an episode of major depression, superimposed on a chronic mild depressed state (dysthymia). […] They were not usually pain-free during the week, though usually did have several pain-free hours in a given day. […] Inadvertent loss of stool several times a month required daily use of adult protective pads. They were taking fluoxetine 40 mg every day for depression, and mesalamine 500 mg twice a day. CDAI was 202.
After careful review of treatment options, they were started on bupropion (fluoxetine was stopped) with up-titration to 150 mg twice a day. Their abdominal complaints eased over the next months, and the major depression remitted. The baseline dysthymia remained. To better treat the dysthymia, bupropion was raised to 150 mg three times daily with a further lowering of their CDAI. The mesalamine was tapered off. Their CDAI is currently approximately zero. They have one well-formed bowel movement daily and has been without abdominal symptoms or encopresis for 19 months now. They have had no CD flares since starting bupropion. Twice in the last year, they stopped bupropion on their own accord because they felt completely well and felt they didn't need bupropion anymore.
The above-described response to bupropion was consistent with other responses in CD patients. For example, a person with a 20-year history of Crohn's enteritis with multiple surgeries, including 4 small bowel resections. […] The patient was taking fluoxetine to help with pain control. […] Even though they were not able to stop smoking, the patient felt better on bupropion so they decided to continue this medicine with their family doctor's consent. Currently, the patient is taking bupropion 150 mg three times daily. […] Under their doctor's supervision, they have recently tapered their azathioprine from 100 to 50 mg every day without any increase in CDAI.

[1] = listed as bupropion hydrochloride
[2] = listed as Bupropion, hydrochloride

Question: With `CC(NC(C)(C)C)C(=O)c1cccc(Cl)c1` (racemic) [bupropion, (.±.)-1-(3-chlorophenyl)-2-[(1,1-dimethylethyl)amino]-1-propanone hydrochloride] as the compound, how does the “serum TNF level compared with placebo” value (TNF; [1]) read?
Answer: decrease

Question: What about the “serum TNF level compared with placebo” value (TNF; hydrochloride) of the same compound?
Answer: lowers; also recorded: significantly reduced

Question: What about the “serum TNF level compared with placebo” value (TNF; [2]) of the same compound?
Answer: significantly decreased

Question: What about the “serum TNF level compared with placebo” value (TNF; listed as buproprion, hydrochloride) of the same compound?
Answer: decreased

Question: And the “serum IL-1beta level compared with placebo” value (IL-1beta; [1])?
Answer: decrease

Question: What about the “serum IL-1beta level compared with placebo” value (IL-1beta; hydrochloride) of the same compound?
Answer: significantly reduced

Question: And the “serum IL-1beta level compared with placebo” value (IL-1beta; [2])?
Answer: significantly decreased

Question: And the “maintenance of low TNF” value (TNF-alpha; person two on bupropion)?
Answer: maintained for more than a year

Question: What about the TNF (TNF-alpha; person two, on bupropion 150 mg TID, 303 pg/ml before) of the same compound?
Answer: 7 pg/mL

Question: And the TNF (TNF-alpha; person, after two months on bupropion 150 mg BID, 347 pg/ml before)?
Answer: 5 pg/mL

Question: What about the “change of TNF-alpha on bupropion” value (TNF-alpha; three patients with CHF) of the same compound?
Answer: dropped profoundly

Question: What about the “CD flares since starting bupropion” value (CD patients; case patients, hydrochloride) of the same compound?
Answer: no CD flares; also recorded: no CD flares or associated surgeries

Question: And the “time without abdominal symptoms or encopresis” value (CD patients; person one on bupropion)?
Answer: 19 months

Question: What about the CDAI (CD patients; person one, colonic CD, bupropion 150 mg three times daily, CDAI 202 before bupropion) of the same compound?
Answer: approximately zero

Question: And the “abdominal cramping and blood per rectum after restarting bupropion” value (CD patients; person one, symptoms recurred on two self-chosen stops)?
Answer: remitted within weeks

Question: What about the CDAI (CD patients; person, Crohn's enteritis, bupropion 150 mg three times daily, CDAI approximately 275 before) of the same compound?
Answer: about 45

Question: And the “Crohn's symptoms” value (CD patients; person, bupropion 150 mg three times daily)?
Answer: alleviated completely

Question: And the “side effects or toxicities” value (CD patients; two CD cases, over 2 years)?
Answer: without significant side effects or toxicities

Question: And the “remission of CD” value (CD patients; two cases)?
Answer: near complete and long-lasting (over 2 years) remissions
